Converted amounts (≈) assume the structure as drawn.
What was measured:
Assay in all cases: ≥ marks a high value that may be exact or a test limit, other limits are often not marked, values filed in µg/mL are converted to µM
[1] = test system: Klebsiella pneumoniae CGMCC 1.1736
[2] = test system: Staphylococcus aureus CGMCC 1.8721
[3] = test system: Staphylococcus epidermidis CGMCC 1.4260
[4] = test system: Pseudomonas aeruginosa CGMCC 1.2421
[5] = test system: Escherichia coli CGMCC 1.8732
[6] = test system: Bacillus subtilis CGMCC 1.3376
Acinetobacter baumannii = test system: Acinetobacter baumannii
[7] = test system: Candida albicans NCPF 1467
[8] = test system: Staphylococcus aureus ATCC 12493
[9] = test system: Escherichia coli NCTC 10418
[10] = test system: Staphylococcus aureus NCTC 10788
[11] = test system: Klebsiella pneumoniae ATCC 700603
Escherichia coli = test system: Escherichia coli
[12] = test system: Pseudomonas aeruginosa PAO1
[13] = test system: Pseudomonas aeruginosa Q12-0581
Campylobacter jejuni = test system: Campylobacter jejuni
[14] = test system: Klebsiella pneumoniae Q14-0095
[15] = test system: Acinetobacter baumannii Q12-0809
[16] = test system: Salmonella typhimurium SL1344
[17] = test system: Campylobacter jejuni NCTC 11351
[18] = test system: Listeria monocytogenes NCTC 11994
[19] = test system: Pseudomonas aeruginosa Q14-0208
[20] = test system: Staphylococcus aureus NCTC 12493
[21] = test system: Acinetobacter baumannii Q12-0867
[22] = test system: Acinetobacter baumannii Q13-0717
[23] = test system: Enterococcus faecalis JH-2-2
Escherichia coli K-12 = test system: Escherichia coli K-12
[24] = test system: Staphylococcus aureus ATCC 29213
[25] = test system: Klebsiella pneumoniae NCTC 13442
[26] = test system: Klebsiella pneumoniae Q14-0285
[27] = test system: Pseudomonas aeruginosa Q14-0890
[28] = test system: Staphylococcus aureus Q14-0320
[29] = test system: Pseudomonas aeruginosa ATCC 27853
[30] = test system: Staphylococcus aureus MRSA-15
[31] = test system: Staphylococcus aureus RN4220
[32] = test system: Escherichia coli ATCC 25922
[33] = test system: Staphylococcus aureus ATCC 25923
Escherichia coli ML-35p = test system: Escherichia coli ML-35p
[34] = test system: Enterococcus faecalis ATCC 29212
[35] = test system: Staphylococcus aureus ATCC BAA-44
[36] = test system: Escherichia coli ATCC 11775
[37] = test system: Salmonella enterica subsp. enterica serovar Typhimurium ATCC 14028
[38] = test system: Escherichia coli ATCC 35218
[39] = test system: Salmonella enterica subsp. enterica serovar Typhi Vi+

Question: Which results are given for `CC[C@H](C)[C@H](NC(=O)[C@H](CO)NC(=O)CNC(=O)[C@@H](NC(=O)[C@@H](N)CCCN=C(N)N)[C@@H](C)CC)C(=O)N[C@@H](CC(C)C)C(=O)NCC(=O)N[C@@H](CCCN=C(N)N)C(=O)N[C@@H](CC(C)C)C(=O)N[C@@H](C)C(=O)N[C@@H](CCCCN)C(=O)NCC(=O)N[C@@H](CC(C)C)C(=O)N1CCC[C@H]1C(=O)N[C@H](C(=O)N[C@@H](CC(C)C)C(=O)N[C@@H](CCCCN)C(=O)N[C@@H](CO)C(=O)N[C@@H](Cc1c[nH]c2ccccc12)C(=O)N[C@H](C(=O)N[C@@H](CCCCN)C(=O)N[C@@H](CC(N)=O)C(=O)N[C@@H](CCCN=C(N)N)C(N)=O)[C@@H](C)CC)[C@@H](C)O` [RIGSILGRLAKGLPTLKSWIKNR]?
Answer: MIC [1]: 12.5 µM (≈ 32.2 µg/mL); MIC [2]: ≥ 100 µM; MIC [3]: 6.25 µM (≈ 16.1 µg/mL); MIC [4]: 12.5 µM (≈ 32.2 µg/mL); MIC [5]: 12.5 µM (≈ 32.2 µg/mL); MIC [6]: 12.5 µM (≈ 32.2 µg/mL); MIC (Acinetobacter baumannii): 12.5 µM (≈ 32.2 µg/mL)

Question: How did the MIC [7] turn out when `CC(C)C[C@H](NC(=O)[C@H](CC(C)C)NC(=O)[C@H](CC(C)C)NC(=O)[C@@H]1CCCN1C(=O)[C@H](CC(C)C)NC(=O)[C@@H](N)Cc1ccccc1)C(=O)N[C@@H](C)C(=O)NCC(=O)N[C@@H](CC(C)C)C(=O)N1CCC[C@H]1C(=O)N[C@@H](CO)C(=O)N[C@@H](Cc1ccccc1)C(=O)N[C@@H](CC(C)C)C(=O)N[C@H]1CSSC[C@@H](C(=O)O)NC(=O)[C@H](CCCCN)NC(=O)[C@H](CCCCN)NC(=O)[C@H](Cc2ccccc2)NC(=O)[C@H](C(C)C)NC(=O)[C@H](CC(C)C)NC1=O` [FLPLLLAGLPSFLCLVFKKC] was run?
Answer: ≥ 512 µM

Question: And the MIC [8]?
Answer: ≥ 512 µM

Question: And the MIC [9]?
Answer: ≥ 512 µM

Question: What about the MIC [10] of the same compound?
Answer: ≥ 128 µM

Question: Which MIC [11] does the source give for `CC(C)C[C@H](NC(=O)[C@H](Cc1cnc[nH]1)NC(=O)[C@H](Cc1ccccc1)NC(=O)[C@H](Cc1ccccc1)NC(=O)[C@H](CCCN=C(N)N)NC(=O)[C@H](CCCCN)NC(=O)[C@H](CO)NC(=O)[C@H](CCCN=C(N)N)NC(=O)[C@H](Cc1cnc[nH]1)NC(=O)[C@H](CC(C)C)NC(=O)[C@H](Cc1ccccc1)NC(=O)[C@H](CCCCN)NC(=O)[C@H](CCCN=C(N)N)NC(=O)[C@H](Cc1ccc(O)cc1)NC(=O)CNC(=O)[C@@H](NC(=O)[C@H](Cc1cnc[nH]1)NC(=O)[C@H](CC(C)C)NC(=O)[C@@H](N)C(C)C)[C@@H](C)O)C(=O)N[C@@H](CCCN=C(N)N)C(=O)O` [VLHTGYRKFLHRSKRFFHLR] here?
Answer: 49.2 µM (≈ 128 µg/mL)

Question: And the MIC (Escherichia coli)?
Answer: > 49.2 µM

Question: What about the MIC [12] of the same compound?
Answer: 197 µM (≈ 512 µg/mL)

Question: And the MIC [13]?
Answer: ≥ 49.2 µM

Question: What about the MIC (Campylobacter jejuni) of the same compound?
Answer: ≥ 49.2 µM

Question: What about the MIC [14] of the same compound?
Answer: ≥ 49.2 µM

Question: What about the MIC [15] of the same compound?
Answer: 12.3 µM (≈ 32 µg/mL)

Question: What about the MIC [16] of the same compound?
Answer: 12.3 µM (≈ 32 µg/mL)

Question: And the MIC [17]?
Answer: ≥ 49.2 µM

Question: What about the MIC [18] of the same compound?
Answer: 24.6 µM (≈ 64 µg/mL)

Question: What about the MIC [19] of the same compound?
Answer: ≥ 49.2 µM

Question: What about the MIC [20] of the same compound?
Answer: 12.3 µM (≈ 32 µg/mL)

Question: What about the MIC [21] of the same compound?
Answer: 24.6 µM (≈ 64 µg/mL)

Question: And the MIC [22]?
Answer: ≥ 49.2 µM

Question: And the MIC [23]?
Answer: 24.6 µM (≈ 64 µg/mL)

Question: And the MIC (Escherichia coli K-12)?
Answer: 24.6 µM (≈ 64 µg/mL)

Question: What about the MIC [24] of the same compound?
Answer: > 49.2 µM

Question: And the MIC [25]?
Answer: ≥ 49.2 µM

Question: And the MIC [26]?
Answer: 24.6 µM (≈ 64 µg/mL)

Question: And the MIC [27]?
Answer: 24.6 µM (≈ 64 µg/mL)

Question: And the MIC [28]?
Answer: ≥ 49.2 µM

Question: And the MIC [29]?
Answer: > 49.2 µM

Question: And the MIC [30]?
Answer: ≥ 49.2 µM

Question: And the MIC [31]?
Answer: ≥ 49.2 µM

Question: For `CC[C@H](C)[C@H](NC(=O)[C@H](CCCCN)NC(=O)[C@H](CC(C)C)NC(=O)[C@H](CC(C)C)NC(=O)[C@@H]1CCCN1C(=O)CNC(=O)[C@H](CC(C)C)NC(=O)[C@H](CCCCN)NC(=O)CN)C(=O)N[C@@H](C)C(=O)N[C@@H](C)C(=O)N[C@@H](CCCCN)C(=O)N[C@H](C(=O)NCC(=O)N[C@@H](CO)C(=O)N[C@@H](CCCCN)C(=O)N[C@@H](CC(C)C)C(=O)N[C@@H](CC(C)C)C(N)=O)C(C)C` [GKLGPLLKIAAKVGSKLL], which MIC [32] is on record?
Answer: 6.3 µM (≈ 11.4 µg/mL)

Question: What about the MIC [33] of the same compound?
Answer: 3 µM (≈ 5.42 µg/mL)

Question: And the MIC (Escherichia coli ML-35p)?
Answer: 1.6 µM (≈ 2.89 µg/mL)

Question: And the MIC [34]?
Answer: 50 µM (≈ 90.3 µg/mL)

Question: And the MIC [29]?
Answer: 3 µM (≈ 5.42 µg/mL)

Question: What about the MIC [35] of the same compound?
Answer: 6.3 µM (≈ 11.4 µg/mL)

Question: How did the MIC [32] turn out when `CC[C@H](C)[C@H](NC(=O)[C@@H]1CCCN1C(=O)[C@H](CCCN=C(N)N)NC(=O)[C@@H]1CCCN1C(=O)[C@H](Cc1cnc[nH]1)NC(=O)[C@H](CO)NC(=O)[C@H](CO)NC(=O)[C@@H]1CCCN1C(=O)[C@H](CCCN=C(N)N)NC(=O)[C@@H]1CCCN1C(=O)[C@H](CO)NC(=O)[C@H](Cc1ccc(O)cc1)NC(=O)[C@@H]1CCCN1C(=O)[C@H](CCCN=C(N)N)NC(=O)[C@@H]1CCCN1C(=O)[C@H](CCCCN)NC(=O)CN)C(=O)N[C@@H](CCCN=C(N)N)C(=O)N[C@H](C(=O)O)C(C)C` [GKPRPYSPRPSSHPRPIRV] was run?
Answer: 0.4 µM (≈ 0.874 µg/mL)

Question: And the MIC [36]?
Answer: 0.6 µM (≈ 1.31 µg/mL)

Question: What about the MIC [37] of the same compound?
Answer: 2 µM (≈ 4.37 µg/mL)

Question: What about the MIC [38] of the same compound?
Answer: 0.2 µM (≈ 0.437 µg/mL)

Question: What about the MIC [39] of the same compound?
Answer: 3 µM (≈ 6.55 µg/mL)

Reference: DBAASP
